Article PMC6066186 (Angewandte Chemie (International ed. in English), 2018)
In brackets after ≈: the same amount, converted by molar mass.

Assays:
Mtb [1] = assay: Growth inhibition; assay type: cell-based, Mycobacterium tuberculosis
Mtb [2] = assay: Combination with isoniazid, Mtb growth; assay type: cell-based, Mycobacterium tuberculosis; conditions: 250 nm, in the absence of TQZ
[3] = test system: ATP production through oxidative phosphorylation in membrane vesicles derived from mycobacteria; assay: NADH-initiated ATP synthesis in mycobacterial membrane vesicles; assay type: biochemical; conditions: read-out: IC50, inhibition of ATP synthesis, NADH added
Mtb [4] = conditions: cited from earlier work
[5] = test system: NADH oxidation in purified membranes; conditions: cited from earlier work

O=C(CSc1nc2cccc(F)c2c(=O)[nH]1)NC1CCCCC1 [CBR-3465]
MIC (Mtb [1]): 0.16 µM (≈ 0.0537 µg/mL)

NNC(=O)c1ccncc1 [INH, isoniazid]
effect on Mtb replication (Mtb [2]): completely prevents replication

COc1nc2ccc(Br)cc2cc1[C@@H](c1ccccc1)[C@@](O)(CCN(C)C)c1cccc2ccccc12 [bedaquiline]
IC50 [3]: 6.9 nM

C=C(C)[C@H]1Cc2c(ccc3c2O[C@@H]2COc4cc(OC)c(OC)cc4[C@@H]2C3=O)O1 [rotenone]
effect on mycobacterial growth (Mtb [4]): little effect | effect on NADH oxidation [5]: little effect
